{
  "source": "patent US20090203711A1",
  "about": "“Inhibitors of P38 Map Kinase” (CHROMA THERAPEUTICS LTD., priority 2006, published 2009)",
  "key": {"[1]": {"system": "human whole blood", "experiment": "LPS-stimulation of human whole blood, TNF-α release by ELISA", "type": "cell-based", "conditions": "LPS 100 ng/ml, 6 hrs, inhibitor added 2 hrs before, read-out: Inhibitor activity versus human whole blood TNFα release", "description": "LPS-Stimulation of Human Whole Blood\nWhole blood was taken by venous puncture using heparinised vacutainers (Becton Dickinson) and diluted in an equal volume of RPMI 1640 tissue culture media (Sigma). 100 μl was plated in V-bottomed 96 well tissue culture treated plates. 2 hrs after the addition of the inhibitor in 100 μl of RPMI 1640 media, the blood was stimulated with LPS (E. coli strain 005:B5, Sigma) at a final concentration of 100 ng/ml and incubated at 37° C. in 5% CO2 for 6 hrs. TNF-α levels were measured from cell-free supernatants by sandwich ELISA (R&D Systems #QTA00B)"}, "[2]": {"system": "THP-1 cells", "experiment": "LPS-stimulation of THP-1 cells, TNF-α release by ELISA", "type": "cell-based", "conditions": "Homo sapiens, LPS 1 μg/ml, 6 hrs, inhibitor added 2 hrs before, read-out: Inhibitor activity versus THP-1 TNFα release", "description": "LPS-Stimulation of THP-1 Cells\nTHP-1 cells were plated in 100 μl at a density of 4×10^4 cells/well in V-bottomed 96 well tissue culture treated plates and incubated at 37° C. in 5% CO2 for 16 hrs. 2 hrs after the addition of the inhibitor in 100 μl of tissue culture media, the cells were stimulated with LPS (E coli strain 005:B5, Sigma) at a final concentration of 1 μg/ml and incubated at 37° C. in 5% CO2 for 6 hrs. TNF-α levels were measured from cell-free supernatants by sandwich ELISA (R&D Systems #QTA00B)"}},
  "note": "Where a name gives a salt, the structure may show the parent alone.",
  "data": [
    {"smiles": "Nc1c(C(=O)c2ccc(F)cc2)ccc(=O)n1-c1c(F)cc(OCCC[C@H](N)C(=O)OC2CCCC2)cc1F", "note": "[Example 7]", "values": [
      {"measurement": "IC50", "setting": "[1]", "result": "100 to 1000", "unit": "nM"}
    ]},
    {"smiles": "CC(C)(C)OC(=O)[C@@H](N)CCCOc1cc(F)c(-n2c(N)c(C(=O)c3ccc(F)cc3F)ccc2=O)c(F)c1", "note": "[Example 6, Tert-Butyl (S)-2-Amino-5-{4-[6-amino-5-(2,4-difluorobenzoyl)-2-oxo-2H-Pyridin-1-yl]-3,5-difluorophenoxy}pentanoate]", "values": [
      {"measurement": "IC50", "setting": "[1]", "result": "100 to 1000", "unit": "nM"}
    ]},
    {"smiles": "CC(C)(C)OC(=O)N[C@@H](CCOc1cc(F)c(-n2c(N)c(C(=O)c3ccc(F)cc3F)ccc2=O)c(F)c1)C(=O)OC1CCCC1", "note": "[Intermediate 2, Cyclopentyl (S)-4-{4-[6-Amino-5-(2,4-difluorobenzoyl)-2-oxo-2H-pyridin-1-yl]-3,5-difluorophenoxy}-2-tert-butoxycarbonylaminobutyrate]", "values": [
      {"measurement": "IC50", "setting": "[2]", "result": "100 to 1000", "unit": "nM"}
    ]},
    {"smiles": "Nc1c(C(=O)c2ccc(F)cc2F)ccc(=O)n1-c1c(F)cc(OCC[C@@H](N)C(=O)OC2CCCC2)cc1F", "note": "[Example 4, Cyclopentyl (R)-2-Amino-4-{4-[6-amino-5-(2,4-difluorobenzoyl)-2-oxo-2H-pyridin-1-yl]-3,5-difluorophenoxy}butanoate Trifluoroacetate]", "values": [
      {"measurement": "IC50", "setting": "[1]", "result": "100 to 1000", "unit": "nM"}
    ]},
    {"smiles": "CC(C)(C)OC(=O)N[C@@H](CCCOc1cc(F)c(-n2c(N)c(C(=O)c3ccc(F)cc3F)ccc2=O)c(F)c1)C(=O)OC1CCCC1", "note": "[Intermediate 1, Cyclopentyl (S)-5-{4-[6-Amino-5-(2,4-difluorobenzoyl)-2-oxo-2H-pyridin-1-yl]-3,5-difluorophenoxy}-2-tert-butoxycarbonylamino Pentanoate]", "values": [
      {"measurement": "IC50", "setting": "[2]", "result": "100 to 1000", "unit": "nM"}
    ]}
  ]
}
